Biological target: SIK2 (Homo sapiens, UniProt Q9H0K1)
Test: SIK2 Enzymatic Assay High Version 2 (High ATP)
Format: biochemical
Settings: not given
Protocol: All steps were performed at room temperature. Compounds were pre-plated onto an assay plate using an Echo acoustic dispenser (Labcyte, E550 or E555) at 80 nL per well. Enzyme prepared in assay buffer at 6 nM (2× final concentration) was added at 4 μL per well using the Multidrop Combi (Thermo Fisher—used for all additions in this assay) to the assay plate, spun for 1 min at 1000 rpm (Allegra 6KR Beckman Coulter centrifuge), and incubated with compound for 30 minutes. Assay buffer containing 6 mM ATP and 400 μM HDAC5tide (2× of final concentration for each substrate) was added at 4 μL per well to the assay plate and then spun as above and incubated for 2 hours. […] ADP-Glo Max Reagent (prepared and aliquoted as per manufacturer instructions) was then added at 8 μL per well, spun and incubated for 2 hours. ADP-Glo Max Detection (prepared and aliquoted as per manufacturer instructions) was added at 8 μL per well to the assay plate, which was spun and incubated for 1 hour. The plate is then read on the Pherastar (BMG Labtech) using a luminescence read. Gain is set between 2200-2500.

Chain of SIK2 (Q9H0K1 whole entry, species assumed): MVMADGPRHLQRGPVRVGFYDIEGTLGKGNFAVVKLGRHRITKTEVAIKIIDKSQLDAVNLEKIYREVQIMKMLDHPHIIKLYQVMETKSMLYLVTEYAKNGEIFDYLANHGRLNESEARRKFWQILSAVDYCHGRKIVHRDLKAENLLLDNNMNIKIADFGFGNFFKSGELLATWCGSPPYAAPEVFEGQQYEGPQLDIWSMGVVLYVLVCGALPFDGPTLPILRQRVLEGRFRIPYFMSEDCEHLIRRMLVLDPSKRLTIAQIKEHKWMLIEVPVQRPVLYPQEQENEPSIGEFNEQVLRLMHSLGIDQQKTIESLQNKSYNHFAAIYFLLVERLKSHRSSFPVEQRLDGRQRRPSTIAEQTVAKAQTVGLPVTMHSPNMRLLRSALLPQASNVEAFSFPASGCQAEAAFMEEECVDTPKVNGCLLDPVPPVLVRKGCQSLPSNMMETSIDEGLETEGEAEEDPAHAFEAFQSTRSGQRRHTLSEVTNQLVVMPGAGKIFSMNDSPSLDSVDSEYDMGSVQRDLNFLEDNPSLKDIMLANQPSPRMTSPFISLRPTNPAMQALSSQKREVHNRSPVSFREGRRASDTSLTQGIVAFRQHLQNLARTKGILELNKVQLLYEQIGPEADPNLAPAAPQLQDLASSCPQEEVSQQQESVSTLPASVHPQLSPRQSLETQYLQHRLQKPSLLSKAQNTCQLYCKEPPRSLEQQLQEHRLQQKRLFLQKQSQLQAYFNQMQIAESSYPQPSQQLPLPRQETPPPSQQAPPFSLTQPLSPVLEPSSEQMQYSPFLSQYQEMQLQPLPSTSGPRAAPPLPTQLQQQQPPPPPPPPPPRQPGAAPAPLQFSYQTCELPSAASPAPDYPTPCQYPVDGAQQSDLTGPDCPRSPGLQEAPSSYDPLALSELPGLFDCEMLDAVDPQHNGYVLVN

SMILES	IC50
Cc1cc(-c2ccn3nc(Nc4ccc(C(=O)NCC(C)(C)C#N)cn4)cc3c2)c(O[C@H]2C[C@H]3COC[C@@H](C2)N3)cn1 [Example 389, N-(2-cyano-2-methyl-propyl)-6-[[5-[2-methyl-5-[[(1S,5R,7s)-3-oxa-9-azabicyclo[3.3.1]nonan-7-yl]oxy]-4-pyridyl]pyrazolo[1,5-a]pyridin-2-yl]amino]pyridine-3-carboxamide]	0.00102 µM
Cc1cc(-c2ccn3nc(Nc4cnc(C(F)(F)F)cn4)cc3c2)c(O[C@H]2C[C@H]3COC[C@@H](C2)N3)cn1 [Example 375, 5-(5-(((1R,5S,7s)-3-oxa-9-azabicyclo[3.3.1]nonan-7-yl)oxy)-2-methylpyridin-4-yl)-N-(5-(trifluoromethyl)pyrazin-2-yl)pyrazolo[1,5-a]pyridin-2-amine]	0.00115 µM
Cc1cc(-c2ccn3nc(Nc4ccc(C(=O)N(C)C)cn4)cc3c2)c(O[C@H]2C[C@H]3COC[C@@H](C2)N3)cn1 [Example 383, N,N-dimethyl-6-[[5-[2-methyl-5-[[(1S,5R,7s)-3-oxa-9-azabicyclo[3.3.1]nonan-7-yl]oxy]-4-pyridyl]pyrazolo[1,5-a]pyridin-2-yl]amino]pyridine-3-carboxamide]	0.000947 µM
Cc1cc(-c2ccn3nc(Nc4ccc(S(C)(=O)=O)cn4)cc3c2)c(O[C@H]2C[C@H]3COC[C@@H](C2)N3)cn1 [Example 393, 5-[2-methyl-5-[[(1R,5S,7s)-3-oxa-9-azabicyclo[3.3.1]nonan-7-yl]oxy]-4-pyridyl]-N-(5-methylsulfonyl-2-pyridyl)pyrazolo[1,5-a]pyridin-2-amine]	0.00131 µM
Cc1cc(Nc2cc3cc(-c4cc(Cl)ncc4O[C@@H]4[C@@H]5CO[C@H]4CN5)ccn3n2)nc(C)n1 [Example 495, 5-[2-chloro-5-[[(1S,4S,7R)-2-oxa-5-azabicyclo[2.2.1]heptan-7-yl]oxy]-4-pyridyl]-N-(2,6-dimethylpyrimidin-4-yl)pyrazolo[1,5-a]pyridin-2-amine]	0.0134 µM
CNC(=O)c1ccc(Nc2cc3cc(-c4cc(C)ncc4O[C@H]4C[C@H]5COC[C@@H](C4)N5)ccn3n2)nc1 [Example 173, 6-((5-(5-(((1R,5S,7s)-3-oxa-9-azabicyclo[3.3.1]nonan-7-yl)oxy)-2-methylpyridin-4-yl)pyrazolo[1,5-a]pyridin-2-yl)amino)-N-methylnicotinamide]	< 0.000847 µM

Same assay, conditions: enzyme 6 nM, 6 mM ATP and 400 μM HDAC5tide (each 2× final concentration); 30 minutes pre-incubation, 2 hours; ADP-Glo Max luminescence; read-out: SIK2 high ATP IC50 (μM) (Test Example 2)

SMILES	IC50
C[C@@H](C#N)Oc1cc(-c2ccn3nc(NC(=O)C4CC4)cc3c2)c(OCC(C)(C)C#N)cn1 (single isomer, unassigned) [Example 726, (*S)—N-[5-[2-(1-cyanoethoxy)-5-(2-cyano-2-methyl-propoxy)-4-pyridyl]pyrazolo[1,5-a]pyridin-2-yl]cyclopropanecarboxamide]	0.00251 µM
Cc1cc(-c2ccn3nc(Nc4cc(F)c(C(=O)NC5CC5)c(F)c4)cc3c2)c(O[C@H]2CC[C@H](O)CC2)cn1 [Example 614, N-cyclopropyl-2,6-difluoro-4-[[5-[5-(4-hydroxycyclohexoxy)-2-methyl-4-pyridyl]pyrazolo[1,5-a]pyridin-2-yl]amino]benzamide]	0.0879 µM
Cc1cc(-c2ccn3nc(Nc4cccnn4)cc3c2)c(O[C@H]2C[C@H](N)C2)cn1 [Example 520, 5-[5-(3-aminocyclobutoxy)-2-methyl-4-pyridyl]-N-pyridazin-3-yl-pyrazolo[1,5-a]pyridin-2-amine]	0.0445 µM
Cc1cc(-c2ccn3nc(Nc4cc(C)nc(C)n4)cc3c2)c(OCC2(CO)COC2)cn1 [Example 274, [3-[[4-[2-[(2,6-dimethylpyrimidin-4-yl)amino]pyrazolo[1,5-a]pyridin-5-yl]-6-methyl-3-pyridyl]oxymethyl]oxetan-3-yl]methanol]	0.0291 µM
Cc1cc(-c2ccn3nc(Nc4cc(C)c(=O)n(CC5CC5)n4)cc3c2)c(OCC(C)(C)O)cn1 [Example 265, 2-(cyclopropylmethyl)-6-[[5-[5-(2-hydroxy-2-methyl-propoxy)-2-methyl-4-pyridyl]pyrazolo[1,5-a]pyridin-2-yl]amino]-4-methyl-pyridazin-3-one]	0.00366 µM
Cc1cc(-c2ccn3nc(NC(=O)C4CC4)cc3c2)c(OCC2(C)CCN2C)cn1 (single isomer, unassigned) [Example 450, (*S)—N-[5-[5-[(1,2-dimethylazetidin-2-yl)methoxy]-2-methyl-4-pyridyl]pyrazolo[1,5-a]pyridin-2-yl]cyclopropanecarboxamide]	0.04 µM

Further lines, results first:

IC50	SMILES
0.0216 µM	CC(C)(C#N)COc1cnc(OC(F)F)cc1-c1ccn2nc(Nc3ccc4c(n3)CNCC4)cc2c1 [Example 719, 3-[[6-(difluoromethoxy)-4-[2-(5,6,7,8-tetrahydro-1,7-naphthyridin-2-ylamino)pyrazolo[1,5-a]pyridin-5-yl]-3-pyridyl]oxy]-2,2-dimethyl-propanenitrile]
0.0348 µM	Cc1cc(-c2ccn3nc(Nc4cc(C)nc(C)n4)cc3c2)c(OC[C@@](C)(O)C(F)(F)F)cn1 (single isomer, unassigned) [Example 264, (*R)-3-[[4-[2-[(2,6-dimethylpyrimidin-4-yl)amino]pyrazolo[1,5-a]pyridin-5-yl]-6-methyl-3-pyridyl]oxy]-1,1,1-trifluoro-2-methyl-propan-2-ol]
0.00997 µM	Cc1cc(Nc2cc3cc(-c4cc(OC(F)F)ncc4OC[C@@H]4CC(=O)NC4(C)C)ccn3n2)nc(C)n1 (single isomer, unassigned) [Example 731]
0.203 µM	Cc1cc(-c2ccn3nc(NC(=O)C4CC4)cc3c2)c(OC[C@@]2(C)CCN2C)cn1 (single isomer, unassigned) [Example 604, (*R)—N-[5-[5-[(1,2-dimethylazetidin-2-yl)methoxy]-2-methyl-4-pyridyl]pyrazolo[1,5-a]pyridin-2-yl]cyclopropanecarboxamide]
0.0472 µM	Cc1cc(-c2ccn3nc(NC(=O)C4CC4)cc3c2)c(OCC2(F)CCN(C)C2)cn1 (single isomer, unassigned) [Example 449, *R—N-[5-[5-[(3-fluoro-1-methyl-pyrrolidin-3-yl)methoxy]-2-methyl-4-pyridyl]pyrazolo[1,5-a]pyridin-2-yl]cyclopropanecarboxamide]
0.0107 µM	Cc1cc(-c2ccn3nc(Nc4cc(C)nc(C)n4)cc3c2)c(OC[C@]2(C)CCOC2)cn1 (single isomer, unassigned) [Example 535, (*R)—N-(2,6-dimethylpyrimidin-4-yl)-5-[2-methyl-5-[(3-methyltetrahydrofuran-3-yl)methoxy]-4-pyridyl]pyrazolo[1,5-a]pyridin-2-amine]
0.0943 µM	Cc1cc(-c2cn3cc(NC(=O)C4CC4)nc3cn2)c(O[C@H]2CC[C@@H](O)CC2)cn1 [Example 655, N-[6-[5-(4-hydroxycyclohexoxy)-2-methyl-4-pyridyl]imidazo[1,2-a]pyrazin-2-yl]cyclopropanecarboxamide]
0.00378 µM	Cc1cc(-c2ccn3nc(Nc4cc(C)nc(C)n4)cc3c2)c(OC2CCC(C#N)CC2)cn1 (stereo not drawn) [Example 552, 4-[[4-[2-[(2,6-dimethylpyrimidin-4-yl)amino]pyrazolo[1,5-a]pyridin-5-yl]-6-methyl-3-pyridyl]oxy]cyclohexanecarbonitrile]
< 0.000847 µM	CN1CC(Oc2nnc(Cl)cc2-c2ccn3nc(NC(=O)C4CC4)cc3c2)C1 [Example 485, N-[5-[6-chloro-3-(1-methylazetidin-3-yl)oxy-pyridazin-4-yl]pyrazolo[1,5-a]pyridin-2-yl]cyclopropanecarboxamide]
0.0448 µM	COc1cc(Nc2cc3cc(-c4cc(C)ncc4O[C@H]4CC[C@H](O)CC4)ccn3n2)ccc1C(=O)NC1CC1 [Example 242, N-cyclopropyl-4-[[5-[5-(4-hydroxycyclohexoxy)-2-methyl-4-pyridyl]pyrazolo[1,5-a]pyridin-2-yl]amino]-2-methoxy-benzamide]
0.00406 µM	Cc1cc(-c2ccn3nc(Nc4cc(C)nc(C)n4)cc3c2)c(OCCC(C)(C)C#N)cn1 [Example 315, 4-[[4-[2-[(2,6-dimethylpyrimidin-4-yl)amino]pyrazolo[1,5-a]pyridin-5-yl]-6-methyl-3-pyridyl]oxy]-2,2-dimethyl-butanenitrile]
0.0755 µM	CC(C)(C#N)COc1cnc(OC(F)F)cc1-c1ccn2nc(Nc3cc4n(n3)CCNC4)cc2c1 [Example 706, 3-[[6-(difluoromethoxy)-4-[2-(4,5,6,7-tetrahydropyrazolo[1,5-a]pyrazin-2-ylamino)pyrazolo[1,5-a]pyridin-5-yl]-3-pyridyl]oxy]-2,2-dimethyl-propanenitrile]
0.0683 µM	Cc1cc(-c2ccn3nc(Nc4cnn(C(C)C)c4)cc3c2)c(OC2CN(C)C2)cn1 [Example 511, N-(1-isopropylpyrazol-4-yl)-5-[2-methyl-5-(1-methylazetidin-3-yl)oxy-4-pyridyl]pyrazolo[1,5-a]pyridin-2-amine]
0.0708 µM	Cc1cc(-c2ccn3nc(NC(=O)C4CC4)cc3c2)c(OCC2(NC3CC3)CCC2)cn1 [Example 157, N-[5-[5-[[1-(cyclopropylamino)cyclobutyl]methoxy]-2-methyl-4-pyridyl]pyrazolo[1,5-a]pyridin-2-yl]cyclopropanecarboxamide]
0.0358 µM	Cc1cc(-c2ccn3nc(Nc4cc(C)c(=O)n(C)n4)cc3c2)c(OC2CCC(S(C)(=O)=O)CC2)cn1 (single isomer, unassigned) [Example 306, 2,4-dimethyl-6-((5-(2-methyl-5-(((1r,4r)-4-(methylsulfonyl)cyclohexyl)oxy)pyridin-4-yl)pyrazolo[1,5-a]pyridin-2-yl)amino)pyridazin-3(2H)-one]
